Values quoted from earlier work in patent publication US5872104A, “Combinations and methods for reducing antimicrobial resistance” (Oridigm Corporation, priority 1994, dated 1999).
Converted amounts (≈) assume the structure as drawn. “Also recorded” adds a separate entry of the source. Where two headings read alike, the source gives them in different places.

How the values were obtained:
[1] = test system: Staphylococcus aureus, methicillin susceptible; details: in µg/mL; cited from earlier work
[2] = test system: Staphylococcus aureus, methicillin resistant; details: cited from earlier work
[3] = test system: Streptococcus pyogenes (group A), erythromycin susceptible; details: cited from earlier work
Streptococcus pneumoniae = details: in µg/mL; cited from earlier work
[4] = test system: Streptococcus agalactactiae (group B); details: in µg/mL; cited from earlier work
Viridans streptococci = details: cited from earlier work
Listeria monocytogenes = details: in µg/mL; cited from earlier work
Haemophilus influenzae = details: in µg/mL; cited from earlier work
Moraxella catarrhalis = details: in µg/mL; cited from earlier work
Neisseria gonorrhoeae = details: in µg/mL; cited from earlier work
Legionella pneumophila = details: in µg/mL; cited from earlier work
Campylobacter species = details: in µg/mL; cited from earlier work
Bacteroides fragilis = details: anaerobes; in µg/mL; cited from earlier work
Clostridium perfringens = details: anaerobes; in µg/mL; cited from earlier work
[5] = test system: Chlamydia pneumoniae (formerly TWAR); details: in µg/mL; cited from earlier work
Chlamydia trachomatis = details: in µg/mL; cited from earlier work
Mycoplasma pneumoniae = details: in µg/mL; cited from earlier work
[6] = versus erythromycin; cited from earlier work
H. influenzae = details: versus erythromycin; cited from earlier work
lysosomal ADA = details: 0.02 mM; cited from earlier work
adenosine deaminase = details: cited from earlier work
neoplastic cells = details: cited from earlier work
[7] = 1 mg/kg/day for 5 days; cited from earlier work
[8] = test system: RNA methyltransferase from Streptomyces antibioticus; details: 50 μM; cited from earlier work
[9] = test system: RNA methyltransferases from Streptomyces (S. antibioticus, S. incarnatus, S. griseolus); details: cited from earlier work
[10] = test system: DNA methylases from S. antibioticus; details: non-sinefungin producer; cited from earlier work
tRNA methylation = details: cited from earlier work
S. antibioticus = details: cited from earlier work
rRNA of S. cerevisiae = details: cited from earlier work
[11] = test system: vaccinia virion mRNA(guanine-7)methyltransferase; details: cited from earlier work
[12] = test system: vaccinia virion mRNA(nucleoside-2'-)methyltransferase; details: cited from earlier work
[13] = test system: Newcastle disease virion mRNA(guanine-7-)methyltransferase; details: cited from earlier work
virion plaque formation = details: 10 μM; cited from earlier work
cellular toxicity = details: cited from earlier work
Cryptosporidium parvum = details: in vivo; cited from earlier work
cutaneous Leishmaniasis = details: mouse, in vivo; cited from earlier work
rat leukemia (BNML) = details: nitrous oxide plus cycloleucine; cited from earlier work
methionine synthetase = details: cited from earlier work
Salmonella typhimurium = details: elevated pressures; cited from earlier work
Streptococcus faecalis = details: elevated pressures; cited from earlier work
E. coli = details: elevated pressures; cited from earlier work
S. aureus = details: elevated pressures; cited from earlier work
[14] = prolonged exposure to clinical concentrations; cited from earlier work
Brucella canis = details: 2×10 mg/kg; cited from earlier work
[15] = test system: 28S and 18S rRNA formation; details: cited from earlier work
anaerobic bacteria = details: cited from earlier work

CC[C@H]1OC(=O)[C@H](C)[C@@H](O[C@H]2C[C@@](C)(OC)[C@@H](O)[C@H](C)O2)[C@H](C)[C@@H](O[C@@H]2O[C@H](C)C[C@H](N(C)C)[C@H]2O)[C@](C)(OC)C[C@@H](C)C(=O)[C@H](C)[C@@H](O)[C@]1(C)O [Clarithromycin]
MIC90 [1]: 0.12-0.24
MIC90 [2]: > 128 µg/mL
MIC90 [3]: 0.015 µg/mL (≈ 0.0201 µM)
MIC90 (Streptococcus pneumoniae): 0.015
MIC90 [4]: 0.03-0.25
MIC90 (Viridans streptococci): 0.03 µg/mL (≈ 0.0401 µM)
MIC90 (Listeria monocytogenes): 0.12-2.0
MIC90 (Haemophilus influenzae): 2.0-16.0
MIC90 (Moraxella catarrhalis): 0.25-1.0
MIC90 (Neisseria gonorrhoeae): 0.25-2.0
MIC90 (Legionella pneumophila): 0.25
MIC90 (Campylobacter species): 1.0-8.0
MIC90 (Bacteroides fragilis): 2.0-8.0
MIC90 (Clostridium perfringens): 0.5-2.0
MIC90 [5]: 0.007
MIC90 (Chlamydia trachomatis): 0.06-0.125
MIC90 (Mycoplasma pneumoniae): 0.008-0.03
stability [6]: better stability properties
H. influenzae activity (H. influenzae): enhanced H. influenzae activity

OC[C@H]1O[C@@H](n2cnc3c2NC=NC[C@H]3O)C[C@@H]1O [2'-deoxyconformycin (pentostatin)]
inhibition of lysosomal ADA (lysosomal ADA): > 97%
ADA inhibition (adenosine deaminase): potent inhibitors of ADA
safe and effective low weekly dose (protracted ADA inhibition in neoplastic cells) (neoplastic cells): 0.13 mg/kg
tolerability in patients [7]: minimal distress

Nc1ncnc2c1ncn2[C@@H]1O[C@H](C[C@@H](N)CC[C@H](N)C(=O)O)[C@@H](O)[C@H]1O [sinefungin]
inhibition [8]: 96%
inhibition of RNA methyltransferases [9]: strongly inhibit RNA methyltransferases; also recorded: inhibited RNA methyltransferase
inhibition of DNA methylases [10]: noticeably inhibited
inhibition of methylation by base (tRNA methylation): inhibits the methylation of adenine or guanine to a greater extent than cytosine in tRNA
inhibition of methylation by base (tRNA methylation; listed as Sinefungin): very strongly inhibits the methylation of G in position 2 and 7, and that of A in position 1 and 6
sporulation (S. antibioticus): inhibits sporulation
synthesis of DNA methyltransferases (S. antibioticus): didn't inhibit the synthesis of DNA methyltransferases
rRNA methylation / stable 18S rRNA (rRNA of S. cerevisiae): inhibits methylation of rRNA in S.cerevisiae and leads to a decrease in stable 18S rRNA
inhibition ([11]; 100 μM): 100%
inhibition [11]: potent inhibitors
inhibition [12]: potent inhibitors
inhibition [13]: potent inhibitors
inhibition of virion plaque formation (virion plaque formation): significant inhibition of virion plaque formation
cellular toxicity (cellular toxicity; 10 μM): no cellular toxicity was detected
cellular toxicity (cellular toxicity; higher concentrations (above 10 μM)): significant cellular toxicity
usable dosage in rat model (Cryptosporidium parvum): 10 mg/kg/day
optimum dosage (cutaneous Leishmaniasis): 4 mg/kg/day
optimum dosage: times lower than the LD50 (cutaneous Leishmaniasis): 50 times

[N-]=[N+]=O [nitrous oxide]
growth inhibiting effects (rat leukemia (BNML)): synergistic growth inhibiting effects
methionine synthetase (methionine synthetase): inhibiting methionine synthetase
inhibition of bacteria (Salmonella typhimurium): inhibited
inhibition of bacteria (Streptococcus faecalis): inhibited
inhibition of bacteria (E. coli): inhibited
inhibition of bacteria (S. aureus): inhibited
adverse effects of prolonged exposure [14]: inhibits cellular proliferation and can lead to megaloblastic anemia, leukopenia, and thrombocytopenia

[H]/N=C(/N)N[C@H]1[C@H](O)[C@@H](O)[C@H](O[C@@H]2O[C@@H](C)[C@](O)(C=O)[C@H]2O[C@@H]2O[C@@H](CO)[C@H](O)[C@@H](O)[C@@H]2NC)[C@@H](N/C(N)=N\[H])[C@@H]1O [streptomycin]
surviving bacteria (Brucella canis): only a minor reduction in the number of surviving bacteria

Nc1ncn([C@@H]2O[C@H](CO)[C@@H](O)[C@H]2O)c(=O)n1 [5-Azacitidine]
formation of 28S and 18S RNA [15]: severely inhibited

CCC[C@@H]1C[C@@H](C(=O)N[C@@H]([C@H]2O[C@H](SC)[C@H](O)[C@@H](O)[C@H]2O)[C@H](C)Cl)N(C)C1 [clindamycin]
activity against anaerobic bacteria (anaerobic bacteria): potent against anaerobic bacteria
